System: 409-B2 iCRISPR-Cas9 iPSCs
Test: PGE efficiency with iCRISPR Cas9 and ssODN donors
Type: cell-based, human
Experimental: FIG. 1: Genome editing and analysis flowchart. iCRISPR 409-B2 iPSCs are treated with 2 μg/ml doxycycline at least for 2 days to induce Cas9 or Cas9D10A expression. Reverse transfection with RNAiMAX, gRNA (7.5 nM each), ssODN (10 nM) and the small molecules to be evaluated is carried out in a 96 well plate for 1 day. The amount of cells used gives ˜80% confluency. Cells are then expanded for 3 days with regular media change. After harvest follows DNA extraction, PCR amplification of targeted loci, Illumina sequencing and CRISPResso (Pinello et al. 2016) sequence analysis for amount of indels and precise genome editing.
Cells were incubated with media containing 2 μg/ml doxycycline (Clontech, 631311) 2 days prior to lipofection. Lipofection (reverse transfection) was done using the alt-CRISPR manufacturer's protocol (IDT) with a final concentration of 7.5 nM of each gRNA and 10 nM of the respective ssODN. In brief, 0.75 μl RNAiMAX (Invitrogen, 13778075) and the respective oligonucleotides were separately diluted in 25 μl OPTI-MEM (Gibco, 1985-062) each and incubated at room temperature for 5 min. Both dilutions were mixed to yield 50 μl of OPTI-MEM including RNAiMAX, gRNAs and ssODNs. The lipofection mix was incubated for 20-30 min at room temperature. During incubation cells were dissociated using EDTA for 5 min and counted using the Countess Automated Cell Counter (Invitrogen). The lipofection mix, 100 μl containing 25.000 dissociated cells in mTeSR1 supplemented with Y-27632, 2 μg/ml doxycycline and the respective small molecule(s) to be tested were throughoutly mixed and put in one well of a 96 well covered with Matrigel Matrix (Corning, 35248). Media was exchanged to regular mTeSR1 media after 24 hours.
Three days after lipofection cells were dissociated using Accutase (SIGMA, A6964), pelleted, and resuspended in 15 μl QuickExtract (Epicentre, QE0905T). Incubation at 65° C. for 10 min, 68° C. for 5 min and finally 98° C. for 5 min was performed to yield ssDNA as a PCR template. Primers for each targeted loci of CALD1, KATNA1 and SLITRK1 containing adapters for Illumina sequencing were ordered from IDT (Coralville, USA). PCR was done in a T100 Thermal Cycler (Bio-Rad) using the KAPA2G Robust PCR Kit (Peqlab, 07-KK5532-03) with supplied buffer B and 3 μl of cell extract in a total volume of 25 μl. The thermal cycling profile of the PCR was: 95° C. 3 min; 34×(95° 15 sec, 65° C. 15 sec, 72° C. 15 sec); 72° C. 60 sec. P5 and P7 Illumina adapters with sample specific indices were added in a second PCR reaction (Kircher et al. 2012) using Phusion HF MasterMix (Thermo Scientific, F-531L) and 0.3 μl of the first PCR product. The thermal cycling profile of the PCR was: 98° C. 30 sec; 25× (98° 10 sec, 58° C. 10 sec, 72° C. 20 sec); 72° C. 5 min. Amplifications were verified by size separating agarose gel electrophoresis using EX gels (Invitrogen, G4010-11). The indexed amplicons were purified using Solid Phase Reversible Immobilization (SPRI) beads (Meyer, Kircher 2010). Double-indexed libraries were sequenced on a MiSeq (Illumina) giving paired-end sequences of 2×150 bp. After base calling using Bustard (Illumina) adapters were trimmed using leeHom (Renaud et al. 2014).
CRISPresso (Pinello et al. 2016) was used to analyse sequencing data from CRISPR genome editing experiments for percentage of wildtype, targeted nucleotide substitutions (TNS), indels and mix of TNS and indels. Parameters used for analysis were ‘-w 20’, ‘--min_identity_score 70’ and ‘--ignore_substitutions’ (analysis was restricted to amplicons with a minimum of 70% similarity to the wildtype sequence and to a window of 20 bp from each gRNA; substitutions were ignored, as sequencing errors would be falsely characterized as NHEJ-events). Sequencing data from colonies after single cell seeding (FIGS. 3B and C) was further analyzed by evaluating the actual read sequences using SAMtools. Clonal colonies were differentiated from mixed colonies using sequence read proportions. […]

[1] = CALD1, 20 μM NU7026, 5 μM NSC 15520
[2] = KATNA1, 20 μM NU7026, 5 μM NSC 15520
[3] = SLITRK1, 20 μM NU7026, 5 μM NSC 15520

SMILES | PGE increase (mean change vs control) [1] | PGE increase (mean change vs control) [2] | PGE increase (mean change vs control) [3] | effect on PGE frequency over CALD1, KATNA1 and SLITRK1 compared to controls (0.01 μM TSA, 0.5 μM MLN4924, 1 μM NSC 19630, 20 μM AICAR, 1 μM RS-1, 1 μM Resveratrol, 1 μM SCR7, 5 μM L755507, 5 μM STL127685, 20 μM B02)
O=c1cc(N2CCOCC2)oc2c1ccc1ccccc12 [NU7026] | 1.5 fold | 1.6 fold | 1.2 fold | –
NS(=O)(=O)OC[C@@H]1C[C@@H](n2ccc3c(N[C@H]4CCc5ccccc54)ncnc32)C[C@@H]1O [MLN4924, Pevonedistat] | – | – | – | slight diminishing effect
CC(C)C1=CC23CCC4C(C)(C(=O)O)CCCC4(C)C2CC1C(C(=O)O)C3C(=O)O (stereo not shown) [NSC 15520, Fumaropimaric acid] | 1.3 fold | no effect | no effect | –
